Experimental data reported in the supplement of paper PMC11665569.

How the values were obtained:
Conditions in all cases: treatment time: 5 days
H1373 [1] = tested on: H1373
Protocol: (§1)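 CCK-8 viability of KRAS G12C-mutant cancer cell lines transfected with control, YAP/TAZ or TEAD1-4 siRNAs and treated with KRAS G12C inhibitors for 5 days; IC50 fitted in Prism after normalising absorbance at 450 nm to vehicle control.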

H1792 = tested on: H1792
Protocol: as §1

H2030 = tested on: H2030
Protocol: as §1

H358 [2] = tested on: H358
Protocol: as §1

KYSE410 = tested on: KYSE410
Protocol: as §1

MIAPACA2 [3] = tested on: MIAPACA2
Protocol: as §1

SW1573 = tested on: SW1573
Protocol: as §1

MIAPACA2 [4] = assay: relative viability (fraction of vehicle control); higher = more viable / less inhibited
Protocol: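 CCK-8 viability of MIAPACA2 cells with empty vector or constitutively active YAP S127A, treated with KRAS G12C inhibitors for 5 days, normalised to vehicle control.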

H1373 [5] = assay: as above
Protocol: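 CCK-8 viability of H1373 cells with empty vector or constitutively active YAP S127A, treated with KRAS G12C inhibitors for 5 days, normalised to vehicle control.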

H358 [6] = assay: as above
Protocol: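 CCK-8 viability of H358 cells with empty vector or constitutively active YAP S127A, treated with KRAS G12C inhibitors for 5 days. Absorbance at 450 nm normalised to vehicle control.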

C=C(F)C(=O)N1CCN(c2nc(OC[C@@H]3CCCN3C)nc3c2CCN(c2cccc4cccc(Cl)c24)C3)C[C@@H]1CC#N [MRTX849]
Conditions	IC50 (cell viability, 5 days) [µM]	relative viability
H358 [2], siRNA knockdown (Con = control): Con	0.00945	–
H358 [2], siRNA knockdown (Con = control): TEAD1234_si1	0.00561	–
H358 [2], siRNA knockdown (Con = control): TEAD1234_si2	0.00374	–
H358 [2], siRNA knockdown (Con = control): YAP_WWTR1_si1	0.00552	–
H358 [2], siRNA knockdown (Con = control): YAP_WWTR1_si2	0.00533	–
H358 [6], log10 concentration (uM): 0, ectopic expression: YAP S127A	–	0.6
H358 [6], log10 concentration (uM): 0, ectopic expression: empty vector (YAP experiment)	–	0.139
H358 [6], log10 concentration (uM): 0.69897, ectopic expression: YAP S127A	–	0.144
H358 [6], log10 concentration (uM): 0.69897, ectopic expression: empty vector (YAP experiment)	–	0.0333
H358 [6], log10 concentration (uM): -0.30103, ectopic expression: YAP S127A	–	0.811
H358 [6], log10 concentration (uM): -0.30103, ectopic expression: empty vector (YAP experiment)	–	0.217
H358 [6], log10 concentration (uM): -1, ectopic expression: YAP S127A	–	0.733
H358 [6], log10 concentration (uM): -1, ectopic expression: empty vector (YAP experiment)	–	0.328
H358 [6], log10 concentration (uM): -1.30103, ectopic expression: YAP S127A	–	0.811
H358 [6], log10 concentration (uM): -1.30103, ectopic expression: empty vector (YAP experiment)	–	0.361
H358 [6], log10 concentration (uM): -2, ectopic expression: YAP S127A	–	1.02
H358 [6], log10 concentration (uM): -2, ectopic expression: empty vector (YAP experiment)	–	0.678
H358 [6], log10 concentration (uM): -2.30103, ectopic expression: YAP S127A	–	1.1
H358 [6], log10 concentration (uM): -2.30103, ectopic expression: empty vector (YAP experiment)	–	0.783
H358 [6], log10 concentration (uM): -3, ectopic expression: YAP S127A	–	1.27
H358 [6], log10 concentration (uM): -3, ectopic expression: empty vector (YAP experiment)	–	0.828
H358 [6], log10 concentration (uM): -4, ectopic expression: YAP S127A	–	1.12
H358 [6], log10 concentration (uM): -4, ectopic expression: empty vector (YAP experiment)	–	0.778
H1373 [1], siRNA knockdown (Con = control): Con	0.0821	–
H1373 [1], siRNA knockdown (Con = control): YAP_WWTR1_si1	0.0193	–
H1373 [1], siRNA knockdown (Con = control): YAP_WWTR1_si2	0.0114	–
H1373 [5], log10 concentration (uM): 0, ectopic expression: YAP S127A	–	0.547
H1373 [5], log10 concentration (uM): 0, ectopic expression: empty vector (YAP experiment)	–	0.301
H1373 [5], log10 concentration (uM): 0.69897, ectopic expression: YAP S127A	–	0.0844
H1373 [5], log10 concentration (uM): 0.69897, ectopic expression: empty vector (YAP experiment)	–	0.0167
H1373 [5], log10 concentration (uM): -0.30103, ectopic expression: YAP S127A	–	0.529
H1373 [5], log10 concentration (uM): -0.30103, ectopic expression: empty vector (YAP experiment)	–	0.307
H1373 [5], log10 concentration (uM): -1, ectopic expression: YAP S127A	–	0.591
H1373 [5], log10 concentration (uM): -1, ectopic expression: empty vector (YAP experiment)	–	0.436
H1373 [5], log10 concentration (uM): -1.30103, ectopic expression: YAP S127A	–	0.578
H1373 [5], log10 concentration (uM): -1.30103, ectopic expression: empty vector (YAP experiment)	–	0.45
H1373 [5], log10 concentration (uM): -2, ectopic expression: YAP S127A	–	0.781
H1373 [5], log10 concentration (uM): -2, ectopic expression: empty vector (YAP experiment)	–	0.863
H1373 [5], log10 concentration (uM): -2.30103, ectopic expression: YAP S127A	–	0.818
H1373 [5], log10 concentration (uM): -2.30103, ectopic expression: empty vector (YAP experiment)	–	0.904
H1373 [5], log10 concentration (uM): -3, ectopic expression: YAP S127A	–	0.938
H1373 [5], log10 concentration (uM): -3, ectopic expression: empty vector (YAP experiment)	–	1.07
H1373 [5], log10 concentration (uM): -4, ectopic expression: YAP S127A	–	1.01
H1373 [5], log10 concentration (uM): -4, ectopic expression: empty vector (YAP experiment)	–	0.995
H1792, siRNA knockdown (Con = control): Con	0.304	–
H1792, siRNA knockdown (Con = control): YAP_WWTR1_si1	0.055	–
H1792, siRNA knockdown (Con = control): YAP_WWTR1_si2	0.0456	–
H2030, siRNA knockdown (Con = control): Con	1.5	–
H2030, siRNA knockdown (Con = control): TEAD1234_si2	0.028	–
KYSE410, siRNA knockdown (Con = control): Con	1.26	–
KYSE410, siRNA knockdown (Con = control): TEAD1234_si1	0.415	–
KYSE410, siRNA knockdown (Con = control): TEAD1234_si2	0.0833	–
KYSE410, siRNA knockdown (Con = control): YAP_WWTR1_si1	0.08	–
KYSE410, siRNA knockdown (Con = control): YAP_WWTR1_si2	0.0272	–
MIAPACA2 [3], siRNA knockdown (Con = control): Con	0.115	–
MIAPACA2 [3], siRNA knockdown (Con = control): TEAD1234_si1	0.0526	–
MIAPACA2 [3], siRNA knockdown (Con = control): TEAD1234_si2	0.0494	–
MIAPACA2 [3], siRNA knockdown (Con = control): YAP_WWTR1_si1	0.0344	–
MIAPACA2 [3], siRNA knockdown (Con = control): YAP_WWTR1_si2	0.0606	–
MIAPACA2 [4], log10 concentration (uM): 0, ectopic expression: YAP S127A	–	0.696
MIAPACA2 [4], log10 concentration (uM): 0, ectopic expression: empty vector (YAP experiment)	–	0.0786
MIAPACA2 [4], log10 concentration (uM): 0.69897, ectopic expression: YAP S127A	–	0.15
MIAPACA2 [4], log10 concentration (uM): 0.69897, ectopic expression: empty vector (YAP experiment)	–	0.0127
MIAPACA2 [4], log10 concentration (uM): -0.30103, ectopic expression: YAP S127A	–	0.687
MIAPACA2 [4], log10 concentration (uM): -0.30103, ectopic expression: empty vector (YAP experiment)	–	0.0877
MIAPACA2 [4], log10 concentration (uM): -1, ectopic expression: YAP S127A	–	0.902
MIAPACA2 [4], log10 concentration (uM): -1, ectopic expression: empty vector (YAP experiment)	–	0.217
MIAPACA2 [4], log10 concentration (uM): -1.30103, ectopic expression: YAP S127A	–	0.924
MIAPACA2 [4], log10 concentration (uM): -1.30103, ectopic expression: empty vector (YAP experiment)	–	0.309
MIAPACA2 [4], log10 concentration (uM): -2, ectopic expression: YAP S127A	–	0.979
MIAPACA2 [4], log10 concentration (uM): -2, ectopic expression: empty vector (YAP experiment)	–	0.917
MIAPACA2 [4], log10 concentration (uM): -2.30103, ectopic expression: YAP S127A	–	1.01
MIAPACA2 [4], log10 concentration (uM): -2.30103, ectopic expression: empty vector (YAP experiment)	–	0.986
MIAPACA2 [4], log10 concentration (uM): -3, ectopic expression: YAP S127A	–	1.06
MIAPACA2 [4], log10 concentration (uM): -3, ectopic expression: empty vector (YAP experiment)	–	0.964
MIAPACA2 [4], log10 concentration (uM): -4, ectopic expression: YAP S127A	–	0.993
MIAPACA2 [4], log10 concentration (uM): -4, ectopic expression: empty vector (YAP experiment)	–	0.997
SW1573, siRNA knockdown (Con = control): Con	0.926	–
SW1573, siRNA knockdown (Con = control): TEAD1234_si1	0.0073	–
SW1573, siRNA knockdown (Con = control): TEAD1234_si2	0.0043	–
